Among the data in PubChem BioAssay (NCI) are TGI and GI50 values, retold here.

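96-well plates; 48 h exposure; 5 concentrations. Endpoints by linear interpolation between flanking doses. Not reached: highest tested concentration assigned. GI50 is the concentration that inhibits growth by half. TGI denotes the concentration required for complete inhibition of growth.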

Some test systems named below: LOX IMVI melanoma; HCC-2998 colon; SNB-75 CNS; SK-MEL-2 melanoma; M14 melanoma; OVCAR-4 ovarian; HCT-15 colon; IGROV1 ovarian; SF-539 CNS; SK-MEL-5 melanoma.
Common to all, as to experiment: DTP human tumour cell line panel, 48 h

The term TGI denotes the concentration at which net growth stops. Higher therefore signals less potent growth arrest. Turning to `CCSC1(SCC)CCN(C=NC(C)(C)C)C1`, the TGI in the experiment with LOX IMVI melanoma, with HCC-2998 colon, in the experiment on SNB-75 CNS, in the experiment on SK-MEL-2 melanoma, in the experiment on M14 melanoma and in the experiment on OVCAR-4 ovarian was above 100 µM each time. Moreover, the total growth inhibition concentration (TGI) with HCT-15 colon, in the experiment on IGROV1 ovarian, with SF-539 CNS and with SK-MEL-5 melanoma was above 100 µM throughout.

Broadly, the GI50 is the concentration at which growth is held to half of that of the control. Consider `O=C(Oc1cccnc1)c1ccccc1Nc1ccnc(C(F)(F)F)c1`, for which the GI50 in the experiment on LOX IMVI melanoma was 0.0406 µM; in the experiment with HCC-2998 colon it was 0.363 µM; in the experiment with SNB-75 CNS, above 63.4 µM; in the experiment on SK-MEL-2 melanoma, 20.2 µM; with M14 melanoma, 0.0536 µM; with OVCAR-4 ovarian it was 0.207 µM. Further, the GI50 with HCT-15 colon is 0.121 µM; in the experiment on IGROV1 ovarian, 21.7 µM; in the experiment on SF-539 CNS it was 0.0428 µM; in the experiment with SK-MEL-5 melanoma it was 0.203 µM. In addition, the TGI was above 37.8 µM with LOX IMVI melanoma; 15.1 µM with HCC-2998 colon; above 100 µM in the experiment on SNB-75 CNS; above 100 µM in the experiment with SK-MEL-2 melanoma; 3.11 µM in the experiment on M14 melanoma; above 100 µM with OVCAR-4 ovarian. Moreover, the TGI in the experiment with HCT-15 colon is above 100 µM; in the experiment on IGROV1 ovarian, above 100 µM; in the experiment with SF-539 CNS it was above 100 µM; in the experiment with SK-MEL-5 melanoma, 2.35 µM.

Consider `OC(c1ccccc1)(c1ccccc1)c1ccccn1`, for which the TGI in the experiment with LOX IMVI melanoma, in the experiment with HCC-2998 colon, with SNB-75 CNS, with SK-MEL-2 melanoma, in the experiment on M14 melanoma and in the experiment with OVCAR-4 ovarian was above 100 µM throughout. Further, the TGI in the experiment with HCT-15 colon, with IGROV1 ovarian, in the experiment with SF-539 CNS and in the experiment with SK-MEL-5 melanoma was above 100 µM each time.

In the case of `CCC(=O)C1=C(OC(C)=O)C2Cc3c(n(C)c4ccccc34)C(C1)N2C` (stereo not given), the TGI in the experiment on LOX IMVI melanoma, with HCC-2998 colon, in the experiment on SNB-75 CNS, in the experiment with SK-MEL-2 melanoma, in the experiment with M14 melanoma and in the experiment on OVCAR-4 ovarian was above 100 µM each time. The total growth inhibition concentration (TGI) in the experiment with HCT-15 colon is 38 µM; in the experiment on IGROV1 ovarian, above 100 µM; in the experiment on SF-539 CNS it was 59.2 µM; in the experiment with SK-MEL-5 melanoma, 97.9 µM.

Consider `C/C(CN1C(=O)c2ccccc2C1=O)=N\NS(=O)(=O)c1ccccc1`, for which the TGI in the experiment with LOX IMVI melanoma, with HCC-2998 colon, in the experiment on SNB-75 CNS, in the experiment with SK-MEL-2 melanoma, in the experiment with M14 melanoma and in the experiment with OVCAR-4 ovarian was above 100 µM throughout. In addition, the TGI in the experiment on HCT-15 colon, in the experiment on IGROV1 ovarian, in the experiment with SF-539 CNS and with SK-MEL-5 melanoma was above 100 µM each time.
